# In patent publication EP0126580B1 (priority 1983, dated 1984):
# Settings: rat, in vivo
structure (smiles),measurement,setting,value
"C[n+]1ccccc1/C=N/O [2-PAMCl, 2-pralidoxime chloride]",lethality,,fatal to all rats
same,time in which the blood concentration drops below therapeutic level (TL),,2 to 3 h
same,time therapeutic plasma drug level maintained,,2-1/4 hours
same,time to death after injection,,≤ 30 min
same,blood drug level achieved,im,20000 ng/mL
